One assay has as its target T1, HO-2 (rat brain) (Rattus norvegicus, UniProt P23711).
T1 construct: brain microsomes were used as a source of HO-2; from tissue; host or cells: brain microsomal fraction of adult male Sprague-Dawley rats
T1 sequence (P23711 1-315): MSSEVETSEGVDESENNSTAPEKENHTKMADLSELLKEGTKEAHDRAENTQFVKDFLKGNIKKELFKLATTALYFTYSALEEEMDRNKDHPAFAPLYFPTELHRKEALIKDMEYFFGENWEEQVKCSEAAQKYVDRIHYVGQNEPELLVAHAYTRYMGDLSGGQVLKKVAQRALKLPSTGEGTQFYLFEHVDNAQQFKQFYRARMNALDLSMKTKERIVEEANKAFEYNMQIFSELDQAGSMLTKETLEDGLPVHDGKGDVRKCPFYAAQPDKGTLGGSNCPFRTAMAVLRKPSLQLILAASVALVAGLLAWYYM
In words: HO enzymatic activity in rat brain microsomal fraction (CO formed from methemalbumin, gas chromatography). The format is biochemical. The conditions noted are these: rat brain microsomes; average ± standard deviation of replicate experiments; hydrochloride; read-out: IC50 HO-2 (rat brain)/μM.

Another assay deals with SKMEL-V+ cells. Kind of assay: Cell proliferation / survival, MTT assay, SKMEL-V+ cells. The format is cell-based, human. The settings on record: 6.25 μM to 100 μM, 96 hours. The procedure:
Exponentially growing SKMEL-V+ cells (1×10^3) were seeded in 96-well plates in complete medium. […] Cell survival was evaluated 96 hours later using the MTT metabolic assay (Benlimame N, He Q, Jie S, et al. FAK signaling is critical for ErbB-2/ErbB-3 receptor cooperation for oncogenic transformation and invasion. J Cell Biol 2005; 171: 505-16).

On to `Brc1ccc(CCC2(Cn3ccnc3)OCCO2)cc1.Cl` [QC-56, 1-((2-(2-(4-Bromophenyl)ethyl)-1,3-dioxolan-2-yl)methyl)-1H-imidazole hydrochloride], for which, on HO-2 (rat brain), the IC50 is ≥ 100 µM. In the assay with SKMEL-V+ cells, the “% cell survival” value was “Dose dependent decrease in cell survival”.

As to `Brc1ccc(CCCCn2ccnc2)cc1.Cl` [QC-199, 1-[4-(4-bromophenyl)butyl]-1H-imidazole hydrochloride], the “% cell survival” value in the assay with SKMEL-V+ cells is listed as “Dose dependent decrease in cell survival”.

(Values after patent US20140155445A1, “Compounds and Methods for Treating Cancer and Diseases of the Central Nervous System” (Osta Biotechnologies Inc., priority 2007, published 2014).)
